Reference: US4510082A, “Pharmacologically active peptides” (Eli Lilly and Company, priority 1983, dated 1985)
Where a name gives a salt, the structure may show the parent alone.

Tests used:
mouse (Harlan ND4) = assay: mouse hot plate test (mouse jump); assay type: in vivo; conditions: subcutaneous injection, tested 15 minutes after administration, hot plate 55° C.
Protocol: In the mouse hot plate test, an upright acrylic cylinder comprising, as its base, a hot plate surface which is maintained at 55° C. is used. A mouse (Harlan ND4) is given, by subcutaneous injection, a predetermined amount of test compound dissolved or suspended in a suitable carrier, and, 15 minutes after administration of the test compound, the mouse is placed on the hot plate surface. The latency in seconds until the mouse jumps from the hot plate surface is measured. […] This must occur in a dose range which produces no motor incoordination or incapacitation. The following Table records ED50 results obtained from this test. By the term "ED50 " is meant that dose which produces analgesia in 50% of the mice tested. Analgesia is defined as a response latency in the presence of test compound that is equal to or greater than the control response latency plus two standard deviations. The percent analgesia data are converted to probits, and the ED50 is calculated by regression analysis of the dose-response data. Each dose response curve must have at least four points, and each point is determined using data from a minimum of ten treated mice and ten control mice.

Cox Standard albino mice = assay: mouse writhing test (acetic acid induced); assay type: in vivo; conditions: 0.6% acetic acid i.p., dose reducing writhing frequency by 50%
Protocol: In the mouse writhing test, a writhing response is defined as a contraction of the abdominal musculature followed by extension of the hind limbs. Acetic acid administered intraperitoneally (10 ml./kg.) at a concentration of 0.6% was used to induce a writhing response. Five Cox Standard albino mice weighing 20-22 g. after being fasted overnight were observed simultaneously for the writhing response. Each mouse was used only once. The observation period was then […] and started five minutes following administration of the acetic acid. Inhibition of mouse writhing was calculated from the total number of writhes in the control and test compound-treated groups according to the following formula: [formula]
The dose required to reduce the frequency of writhing by 50% is defined as the ED50 and is calculated by "The use of Regression Line in Reverse", [Brownlee, K.A., Statistical Theory and Methodology in Science and Engineering, 2nd Ed., New York, John Wiley and Sons (1965)].

mice = conditions: cited from earlier work

Compound	Mouse Jump ED50 (mouse (Harlan ND4)) [mg/kg]	Mouse Writhing, ED50, Oral (Cox Standard albino mice)	Mouse Writhing, ED50, Subcutaneous (Cox Standard albino mice) [mg/kg]	analgesic activity upon intracerebroventricular administration (mice)
CCN(C(=O)CNC(=O)[C@@H](C)NC(=O)[C@H](Cc1ccc(O)cc1)NC)[C@@H](Cc1ccccc1)CN(C)C [Ala Et H, L-(N-Methyl)tyrosyl-D-alanylglycine, [N-ethyl-N-(1-benzyl-2-dimethylamino)ethyl]amide, Diacetate Salt]	0.04	50.4 mg/kg	1.14	–
CCN(C(=O)CNC(=O)[C@@H](C)NC(=O)[C@H](Cc1ccc(O)cc1)NC)[C@@H](Cc1ccc(F)cc1)CN(C)C [Ala Et p-F, L-(N-Methyl)tyrosyl-D-alanylglycine[N-ethyl-N-[1-(4'-fluorobenzyl)-2-dimethylamino]ethyl]amide, Diacetate Salt]	0.04	88.2 mg/kg	2.1	–
CN[C@@H](Cc1ccc(O)cc1)C(=O)N[C@H](C)C(=O)NCC(=O)N(C)[C@@H](Cc1ccccc1)CN(C)C [Ala Me H, L-(N-Methyl)tyrosyl-D-alanylglycine, [N-methyl-N-(1-benzyl-2-dimethylamino)ethyl]amide, Diacetate Salt]	0.05	~ 160 mg./kg.	1.81	–
CCN(C(=O)CNC(=O)[C@@H](COC)NC(=O)[C@H](Cc1ccc(O)cc1)NC)[C@@H](Cc1ccccc1)CN(C)C [Ser(Me) Et H, L-(N-Methyl)tyrosyl-D-(O-methyl)serylglycine, [N-ethyl-N-(1-benzyl-2-dimethylamino)ethyl]amide, Diacetate Salt]	0.09	53.5 mg/kg	3.6	–
H-Tyr-Gly-Gly-Phe-Leu-OH [leucine enkephalin]	–	–	–	exhibit analgesic activity
H-Tyr-Gly-Gly-Phe-Met-OH [methionine enkephalin]	–	–	–	exhibit analgesic activity
